Experimental data taken from ChEMBL document CHEMBL3425489, “X-ray crystal structures of Escherichia coli RNA polymerase with switch region binding inhibitors enable rational design of squaramides with an improved fraction unbound to human plasma protein” (J Med Chem, 2015).
Values after ≈ are worked out from the molar mass of the structure shown.

How the values were obtained:
[1] = octanol/water, pH 7.4
Description: (§2) Partition coefficient, log D of the compound at pH 7.4 by shake flask method

[2] = Inhibition of Escherichia coli switch region of RNA polymerase after 1 hr by transcription-coupled translation assay
Plasma = experiment: (§1) Fraction unbound (%) in human plasma at 10 uM by LC/MS-MS analysis; assay type: ADME, cell-free; conditions: 10 µM
[3] = Equilibrium solubility of the compound in phosphate buffer by LC-MS analysis
physchem = conditions: octanol/water, pH 7.4
Description: as §2

[4] = as §1; assay type: ADME, cell-free
Haemophilus influenzae = experiment: Antibacterial activity against Haemophilus influenzae acrB by broth microdilution method; assay type: functional

Structure (SMILES)	logD [1]	IC50 [2]	Fu (Plasma)	solubility thermodynamic [3]	logD (physchem)	fraction unbound at 10 µM [4]	MIC (Haemophilus influenzae)
Cc1noc(C)c1S(=O)(=O)Nc1c(N2CCC(C)CC2)c(=O)c1=O	-1	> 100000 nM	1.6%	773 µM (≈ 273 µg/mL)	–	–	–
Cc1noc(C)c1S(=O)(=O)Nc1c(N2CCC(Cc3ccccc3)CC2)c(=O)c1=O	–	280 nM	–	> 1000 µM	0.1	< 0.01	200 µM (≈ 85.9 µg/mL)
O=c1c(NS(=O)(=O)c2ccccc2)c(N2CCC(Cc3ccccc3)CC2)c1=O	0.2	2100 nM	< 1%	> 1000 µM	–	–	200 µM (≈ 82.1 µg/mL)
Cc1nn(C(F)F)cc1S(=O)(=O)Nc1c(N2CCC(Cc3ccccc3)CC2)c(=O)c1=O	-0.1	7900 nM	< 1%	> 1000 µM	–	–	100 µM (≈ 46.4 µg/mL)
Cc1noc(C)c1C(=O)Nc1c(N2CCC(Cc3ccccc3)CC2)c(=O)c1=O	1.7	> 100000 nM	< 1%	508 µM (≈ 200 µg/mL)	–	–	–
Cc1noc(C)c1S(=O)(=O)Nc1c(N2CCC(c3ccccc3)CC2)c(=O)c1=O	-0.6	26000 nM	< 1%	763 µM (≈ 317 µg/mL)	–	–	–
Cc1noc(C)c1S(=O)(=O)Nc1c(N2CCCC(Cc3ccccc3)C2)c(=O)c1=O (centres undefined)	-0.3	71000 nM	< 1%	985 µM (≈ 423 µg/mL)	–	–	–
Cc1ccc(CC2CCN(c3c(NS(=O)(=O)c4c(C)noc4C)c(=O)c3=O)CC2)cc1	0.5	290 nM	< 1%	> 1000 µM	–	–	12.5 µM (≈ 5.54 µg/mL)
Cc1noc(C)c1S(=O)(=O)Nc1c(N2CCC(CCc3ccccc3)CC2)c(=O)c1=O	0	320 nM	< 1%	636 µM (≈ 282 µg/mL)	–	–	–
Cc1noc(C)c1S(=O)(=O)Nc1c(N2CCN(Cc3ccc(C#N)cc3)CC2)c(=O)c1=O	-1.3	1500 nM	2.9%	> 1000 µM	–	–	200 µM (≈ 91.1 µg/mL)
COc1ccc(CN2CCN(c3c(NS(=O)(=O)c4c(C)noc4C)c(=O)c3=O)CC2)cc1	-0.9	3000 nM	1.8%	497 µM (≈ 229 µg/mL)	–	–	> 200 µM
Cc1noc(C)c1S(=O)(=O)Nc1c(N2CCN(CCc3ccccc3)CC2)c(=O)c1=O	-0.4	43000 nM	4.9%	560 µM (≈ 249 µg/mL)	–	–	–
Cc1noc(C)c1S(=O)(=O)Nc1c(N2CCC(NCc3ccc(F)cc3)CC2)c(=O)c1=O	0	2700 nM	26%	52 µM (≈ 24.1 µg/mL)	–	–	> 200 µM
Cc1noc(C)c1S(=O)(=O)Nc1c(N2CCC(NCc3ccc(C(F)(F)F)cc3)CC2)c(=O)c1=O	0.8	290 nM	6.6%	> 1000 µM	–	–	25 µM (≈ 12.8 µg/mL)
Cc1noc(C)c1S(=O)(=O)Nc1c(N2CCC(N(C)Cc3ccc(OC(F)F)cc3)CC2)c(=O)c1=O	–	430 nM	–	–	–	–	50 µM (≈ 26.2 µg/mL)
Cc1noc(C)c1S(=O)(=O)Nc1c(N2CCC(N(C)Cc3ccc(Cl)cc3)CC2)c(=O)c1=O	0.5	330 nM	3.8%	> 1000 µM	–	–	50 µM (≈ 24.6 µg/mL)
Cc1noc(C)c1S(=O)(=O)Nc1c(N2CCC(N(C)CC3CCCCC3)CC2)c(=O)c1=O	-0.4	> 100000 nM	38%	12.2 µM (≈ 5.67 µg/mL)	–	–	–
CCCC/C(C)=C/C=C(\C)C(=O)c1c(O)cc(C(C)CC/C=C/NC(=O)OC)oc1=O (racemic)	-0.3	1000 nM	< 1%	679 µM (≈ 293 µg/mL)	–	–	–
CC(=O)NC[C@H]1CN(c2ccc(N3CCOCC3)c(F)c2)C(=O)O1 [LINEZOLID]	–	–	–	–	–	–	12.5 µM (≈ 4.22 µg/mL)
CO[C@H]1/C=C/O[C@@]2(C)Oc3c(C)c(O)c4c(O)c(c(/C=N/N5CCN(C)CC5)c(O)c4c3C2=O)NC(=O)/C(C)=C\C=C\[C@H](C)[C@H](O)[C@@H](C)[C@@H](O)[C@@H](C)[C@H](OC(C)=O)[C@@H]1C [RIFAMPIN]	1.3	–	16.5%	751 µM (≈ 618 µg/mL)	–	–	0.025 µM (≈ 0.0206 µg/mL)
